# Measured values published in US20140275060A1, “COMPOUNDS FOR THE TREATMENT OF NEUROLOGIC DISORDERS” (priority 2013, published 2014).
# Target: GluN1/GluN2B Receptors (Rattus norvegicus, UniProt P35439+Q00960)
# Assay: Two-electrode voltage-clamp IC50 determination at GluN1/GluN2B receptors expressed in Xenopus oocytes
# Assay type: cell-based, Human or Rat
# Procedure: Determination of IC50 Values of GluN1/GluN2B Receptors Expressed in Xenopus oocytes in Human or Rat Stage V and VI oocytes were surgically removed from the ovaries of large, well-fed and healthy Xenopus laevis anesthetized with 3-amino-benzoic acid ethyl ester (3 gm/l). Oocytes were injected within 24 hrs of isolation with 3-5 ng of GluN1 subunit cRNA and 7-10 ng of GluN2 cRNA subunit in a 50 nl volume, and incubated in Barth's solution at 18° C. for 2-7 d. Glass injection pipettes had tip sizes ranging from 10-20 microns, and were backfilled with mineral oil. Two electrode voltage-clamp recordings were made 2-7 days post-injection. Oocytes were placed in a dual-track plexiglass recording chamber and dual recordings were made at room temperature (23° C.) using two Warner OC725C two-electrode voltage clamp amplifiers, arranged as recommended by the manufacturer. Glass microelectrodes (1-10 Megaohms) were filled with 300 mM KCl (voltage electrode) or 3 M KCl (current electrode). The bath clamps communicated across silver chloride wires placed into each side of the recording chamber, both were assumed to be at a reference potential of 0 mV. Oocytes were perfused with a solution comprised of (in mM) 90 NaCl, 1 KCl, 10 HEPES, 10 EDTA and 0.5 BaCl2; pH was adjusted by addition of 1-3 M NaOH or HCl. Oocytes were recorded under voltage clamp at −40 mV. Final concentrations for glutamate and glycine were 50 μM and 30 μM, respectively. Concentration-response curves for experimental compounds were obtained by applying maximal glutamate/glycine, followed by glutamate/glycine plus variable concentrations of experimental compounds. Dose response curves consisting of 4 to 6 concentrations were obtained in this manner. The baseline leak current at −40 mV was measured before and after recording, and the full recording linearly corrected for any change in leak current. The level of inhibition by applied experimental compounds measured after a 6 min exposure to a compound was expressed as a percent of the initial glutamate response, and averaged together across oocytes from multiple experiments. Results were pooled, and the average percent responses at antagonist concentrations were fit by the equation, Percent Response=(100−minimum)/(1+([conc]/IC50)^nH)+minimum where minimum is the residual percent response in saturating concentration of the experimental compounds, IC50 is the concentration of antagonist that causes half of the achievable inhibition, and nH is a slope factor describing steepness of the inhibition curve. Minimum was constrained to be between zero and 20. Recordings were made at pH 6.9, pH 7.4, and pH 7.6.
# Chain of GluN1/GluN2B Receptors (Q00960 27-1482, other chains not shown): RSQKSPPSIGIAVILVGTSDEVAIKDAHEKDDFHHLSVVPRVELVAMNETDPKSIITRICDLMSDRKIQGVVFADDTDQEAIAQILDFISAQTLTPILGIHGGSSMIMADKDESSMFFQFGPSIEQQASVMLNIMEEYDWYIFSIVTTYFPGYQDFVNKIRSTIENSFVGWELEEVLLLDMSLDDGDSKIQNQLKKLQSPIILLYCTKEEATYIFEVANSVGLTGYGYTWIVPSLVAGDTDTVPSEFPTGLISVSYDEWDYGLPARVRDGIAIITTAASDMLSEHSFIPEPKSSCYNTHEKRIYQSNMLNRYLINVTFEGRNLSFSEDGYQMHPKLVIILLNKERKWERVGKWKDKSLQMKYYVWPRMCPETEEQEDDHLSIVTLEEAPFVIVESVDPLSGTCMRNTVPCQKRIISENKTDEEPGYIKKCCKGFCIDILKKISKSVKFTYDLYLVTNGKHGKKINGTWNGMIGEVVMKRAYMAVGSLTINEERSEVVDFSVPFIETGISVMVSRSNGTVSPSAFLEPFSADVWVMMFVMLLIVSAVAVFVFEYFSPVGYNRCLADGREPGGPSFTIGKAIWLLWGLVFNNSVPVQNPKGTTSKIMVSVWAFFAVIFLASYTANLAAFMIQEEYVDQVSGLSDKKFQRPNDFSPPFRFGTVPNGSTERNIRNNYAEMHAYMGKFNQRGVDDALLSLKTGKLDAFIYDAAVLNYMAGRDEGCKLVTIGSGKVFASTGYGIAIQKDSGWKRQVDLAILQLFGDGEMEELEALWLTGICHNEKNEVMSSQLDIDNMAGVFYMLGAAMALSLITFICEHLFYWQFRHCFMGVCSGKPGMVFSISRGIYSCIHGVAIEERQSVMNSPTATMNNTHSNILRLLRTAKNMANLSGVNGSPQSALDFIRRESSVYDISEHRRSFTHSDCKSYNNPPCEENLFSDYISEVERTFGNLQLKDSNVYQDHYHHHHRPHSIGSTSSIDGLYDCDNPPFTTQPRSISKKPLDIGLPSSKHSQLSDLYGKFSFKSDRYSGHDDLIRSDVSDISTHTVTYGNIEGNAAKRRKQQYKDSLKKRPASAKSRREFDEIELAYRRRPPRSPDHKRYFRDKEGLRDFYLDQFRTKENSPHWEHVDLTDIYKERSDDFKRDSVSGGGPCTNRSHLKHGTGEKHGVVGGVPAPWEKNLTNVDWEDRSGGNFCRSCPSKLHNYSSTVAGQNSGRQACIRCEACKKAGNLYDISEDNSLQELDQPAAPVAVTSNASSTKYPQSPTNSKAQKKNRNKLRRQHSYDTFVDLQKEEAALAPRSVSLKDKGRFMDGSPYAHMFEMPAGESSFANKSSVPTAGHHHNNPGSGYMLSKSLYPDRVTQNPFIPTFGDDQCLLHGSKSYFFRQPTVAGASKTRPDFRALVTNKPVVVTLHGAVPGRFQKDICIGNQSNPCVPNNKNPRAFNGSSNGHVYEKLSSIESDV
Structure (SMILES),nH (slope factor of the inhibition curve) (pH 6.9),nH (slope factor of the inhibition curve) (pH 7.6)
"O=c1ccc2cc(/C=C/[C@H](O)CN3CCN(c4ccc(C5CC5)cc4)CC3)ccc2[nH]1 [Compound 13, (S,E)-6-(4-(4-(4-cyclopropylphenyl)piperazin-1-yl)-3-hydroxybut-1-en-1-yl)quinolin-2(1H)-one]",−0.81,−0.80
"O=C1NCc2cc(/C=C/[C@@H](O)CN3CCN(c4ccc(C(F)(F)F)cc4)CC3)ccc2N1 [Compound 41, (R,E)-6-(3-hydroxy-4-(4-(4-(trifluoromethyl)phenyl)piperazin-1-yl)but-1-en-1-yl)-3,4-dihydroquinazolin-2(1H)-one]",−0.64,−1.04
"NC(=O)Nc1ccc(/C=C/[C@@H](O)CN2CCN(c3ccc(C(F)(F)F)cc3)CC2)cc1 [Compound 38, (R,E)-1-(4-(3-Hydroxy-4-(4-(4-(trifluoromethyl)phenyl)piperazin-1-yl)but-1-en-1-yl)phenyl)urea]",−0.64,−0.69
"O=C1CCc2cc(/C=C/[C@@H](O)CN3CCN(c4ccc(Cl)cc4)CC3)ccc2N1 [Compound 31, (R,E)-6-(4-(4-(4-Chlorophenyl)piperazin-1-yl)-3-hydroxybut-1-en-1-yl)-3,4-dihydroquinolin-2(1H)-one]",−0.64,−0.90
"O=C1CCc2cc(/C=C/[C@@H](CO)N3CCN(c4ccc(C(F)(F)F)cc4)CC3)ccc2N1 [Compound 43, (S,E)-6-(4-Hydroxy-3-(4-(4-(trifluoromethyl)phenyl)piperazin-1-yl)but-1-en-1-yl)-3,4-dihydroquinolin-2(1H)-one]",−0.67,−1.09
"CCCc1ccc(N2CCN(C[C@@H](O)/C=C/c3ccc4[nH]c(=O)ccc4c3)CC2)cc1 [Compound 11, (S,E)-6-(3-hydroxy-4-(4-(4-propylphenyl)piperazin-1-yl)but-1-en-1-yl)quinolin-2(1H)-one]",−0.87,−0.52
"CCCc1ccc(N2CCN(CC(O)C=Cc3ccc4[nH]c(=O)ccc4c3)CC2)cc1 (racemic) [Compound 10, (rac-)(E)-6-(3-hydroxy-4-(4-(4-propylphenyl)piperazin-1-yl)but-1-en-1-yl)quinolin-2(1H)-one]",−0.90,−1.24
"O=C1CCc2cc(/C=C/C(O)CN3CCN(c4ccc(Cl)cc4)CC3)ccc2N1 (racemic) [Compound 21, (rac)-(E)-6-(4-(4-(4-Chlorophenyl)piperazin-1-yl)-3-hydroxybut-1-en-1-yl)-3,4-dihydroquinolin-2(1H)-one]",−0.81,−1.28
"O=C1COc2cc(/C=C/[C@H](O)CN3CCN(c4ccc(C(F)(F)F)cc4)CC3)ccc2N1 [Compound 16, (S,E)-7-(3-hydroxy-4-(4-(4-(trifluoromethyl)phenyl)piperazin-1-yl)but-1-en-1-yl)-2H-benzo[b][1,4]oxazin-3(4H)-one]",−0.67,−1.29
"CC(C)c1ccc(N2CCN(C[C@@H](O)/C=C/c3ccc4c(c3)CCC(=O)N4)CC2)cc1 [Compound 25, (S,E)-6-(3-Hydroxy-4-(4-(4-isopropylphenyl)piperazin-1-yl)but-1-en-1-yl)-3,4-dihydroquinolin-2(1H)-one]",−0.61,−1.22
"CC(C)c1ccc(N2CCN(C[C@H](O)/C=C/c3ccc4c(c3)CCC(=O)N4)CC2)cc1 [Compound 29, (R,E)-6-(3-Hydroxy-4-(4-(4-isopropylphenyl)piperazin-1-yl)but-1-en-1-yl)-3,4-dihydroquinolin-2(1H)-one]",−0.54,−1.31
"O=C1CCc2cc(/C=C/[C@H](O)CN3CCN(c4ccc(C(F)(F)F)cc4)CC3)ccc2N1 [Compound 33, (S,E)-6-(3-Hydroxy-4-(4-(4-(trifluoromethyl)phenyl)piperazin-1-yl)but-1-en-1-yl)-3,4-dihydroquinolin-2(1H)-one]",−0.56,−0.65

# Further lines, results first:
nH (slope factor of the inhibition curve) (pH 6.9),nH (slope factor of the inhibition curve) (pH 7.6),Structure (SMILES)
−0.78,−1.28,"O=C1NCc2cc(/C=C/[C@@H](O)CN3CCN(c4ccc(C5CC5)cc4)CC3)ccc2N1 [Compound 18, (R,E)-6-(4-(4-(4-cyclopropylphenyl)piperazin-1-yl)-3-hydroxybut-1-en-1-yl)-3,4-dihydroquinazolin-2(1H)-one]"
−0.68,−0.75,"O=C1CCc2cc(/C=C/[C@@H](O)CN3CCN(c4ccc(C(F)(F)F)cc4)CC3)ccc2N1 [Compound 35, (R,E)-6-(3-Hydroxy-4-(4-(4-(trifluoromethyl)phenyl)piperazin-1-yl)but-1-en-1-yl)-3,4-dihydroquinolin-2(1H)-one]"
−0.88,−1.04,"O=C1COc2cc(/C=C/[C@@H](O)CN3CCN(c4ccc(C(F)(F)F)cc4)CC3)ccc2N1 [Compound 15, (R,E)-7-(3-hydroxy-4-(4-(4-(trifluoromethyl)phenyl)piperazin-1-yl)but-1-en-1-yl)-2H-benzo[b][1,4]oxazin-3(4H)-one]"
−0.43,−0.69,"NC(=O)Nc1ccc(/C=C/[C@H](O)CN2CCN(c3ccc(C(F)(F)F)cc3)CC2)cc1 [Compound 39, (S,E)-1-(4-(3-Hydroxy-4-(4-(4-(trifluoromethyl)phenyl)piperazin-1-yl)but-1-en-1-yl)phenyl)urea]"
−0.80,−0.80,"O=C1CCc2cc(/C=C/[C@@H](O)CN3CCN(c4ccc(C(F)(F)F)cn4)CC3)ccc2N1 [Compound 45, (R,E)-6-(3-Hydroxy-4-(4-(5-(trifluoromethyl)pyridin-2-yl)piperazin-1-yl)but-1-en-1-yl)-3,4-dihydroquinolin-2(1H)-one]"
−0.82,−1.05,"CC(C)c1ccc(N2CCN(C[C@@H](O)/C=C/c3ccc(NC(N)=O)cc3)CC2)cc1 [Compound 36, (S,E)-1-(4-(3-Hydroxy-4-(4-(4-isopropylphenyl)piperazin-1-yl)but-1-en-1-yl)phenyl)urea]"
−0.95,−0.64,"O=C1CCc2cc(/C=C/[C@H](O)CN3CCN(c4ccc(Cl)cc4)CC3)ccc2N1 [Compound 27, (S,E)-6-(4-(4-(4-Chlorophenyl)piperazin-1-yl)-3-hydroxybut-1-en-1-yl)-3,4-dihydro-quinolin-2(1H)-one]"
−1.09,−0.60,"O=C1CCc2cc(/C=C/C(CO)N3CCN(c4ccc(Cl)cc4)CC3)ccc2N1 (racemic) [Compound 23, (rac)-(E)-6-(3-(4-(4-chlorophenyl)piperazin-1-yl)-4-hydroxybut-1-en-1-yl)-3,4-dihydroquinolin-2(1H)-one]"
